From patent US12637471B2, “Heterocyclic compounds, compositions, methods of preparation and uses thereof” (Organon R&D Finland Ltd, priority 2021, dated 2026)

Columns and labels:
Type in all cases: biochemical
[1] = biological target: T1, Recombinant human AKR1C3 (17β-HSD5) protein (Homo sapiens, UniProt P42330); assay: Inhibition of AKR1C3 (17β-hydroxysteroid dehydrogenase type 5) enzyme, fluorescence assay; details: inhibitor at 500 nM
T1 construct: made in house; host or cells: E. coli
T1 sequence (P42330 1-323): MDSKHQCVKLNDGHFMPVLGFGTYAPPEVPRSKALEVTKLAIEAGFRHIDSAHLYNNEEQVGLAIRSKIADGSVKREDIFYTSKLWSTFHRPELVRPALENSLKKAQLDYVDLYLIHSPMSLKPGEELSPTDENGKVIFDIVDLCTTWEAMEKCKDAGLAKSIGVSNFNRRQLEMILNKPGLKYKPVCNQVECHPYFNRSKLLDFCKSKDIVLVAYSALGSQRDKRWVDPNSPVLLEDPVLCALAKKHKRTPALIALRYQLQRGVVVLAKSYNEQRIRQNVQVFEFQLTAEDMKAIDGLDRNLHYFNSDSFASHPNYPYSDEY
Method in brief: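 Percent inhibition at 500 nM compound, derived from substrate conversion; product alcohol measured by fluorescence (ex 420, em 510 nm) against a 1 μM–10 nM standard curve. Reaction: 27 nM recombinant AKR1C3, 1 μM ketone substrate, 1 mM NADPH, phosphate/EDTA buffer pH 7.4, 1% DMSO, RT for 60–120 min.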

[2] = biological target: T2, Recombinant human aldo-keto reductase family 1 member C2 (AKR1C2) protein (Homo sapiens, UniProt P52895); assay: Inhibition of the aldo-keto reductase family 1 member C2, 3H-dihydrotestosterone conversion; details: inhibitor at 10 μM
T2 construct: made in house; host or cells: Sf-9 insect cells (baculovirus)
T2 sequence (P52895 1-323): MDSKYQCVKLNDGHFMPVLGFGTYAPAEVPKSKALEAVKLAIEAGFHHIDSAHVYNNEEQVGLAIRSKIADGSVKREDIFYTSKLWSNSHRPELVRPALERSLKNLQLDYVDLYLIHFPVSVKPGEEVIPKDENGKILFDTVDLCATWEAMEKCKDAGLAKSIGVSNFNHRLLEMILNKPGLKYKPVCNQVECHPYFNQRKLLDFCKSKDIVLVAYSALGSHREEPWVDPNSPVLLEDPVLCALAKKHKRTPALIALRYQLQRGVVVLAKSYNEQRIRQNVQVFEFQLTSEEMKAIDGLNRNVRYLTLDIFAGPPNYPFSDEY
Method in brief: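 Single-point screen at 10 μM inhibitor, 1% DMSO: [3H]DHT (6.25 nM) reduction to 3α-diol by baculovirus-made AKR1C2 (13.6 nM), pH 7.4 phosphate buffer, 1 mM NADPH, 37 °C for 45 min. Radio-UPLC quantified product versus substrate to give percent inhibition.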

[3] = biological target: T3, 17β-Hydroxysteroid Dehydrogenase Type 2 Enzyme (17β-HSD2) (Homo sapiens, UniProt P37059); assay: Inhibition of the 17β-hydroxysteroid dehydrogenase type 2 enzyme, 3H-testosterone conversion; details: inhibitor at 10 μM
T3 construct: made in house; host or cells: Sf-9 insect cells (baculovirus)
T3 sequence (P37059 1-387): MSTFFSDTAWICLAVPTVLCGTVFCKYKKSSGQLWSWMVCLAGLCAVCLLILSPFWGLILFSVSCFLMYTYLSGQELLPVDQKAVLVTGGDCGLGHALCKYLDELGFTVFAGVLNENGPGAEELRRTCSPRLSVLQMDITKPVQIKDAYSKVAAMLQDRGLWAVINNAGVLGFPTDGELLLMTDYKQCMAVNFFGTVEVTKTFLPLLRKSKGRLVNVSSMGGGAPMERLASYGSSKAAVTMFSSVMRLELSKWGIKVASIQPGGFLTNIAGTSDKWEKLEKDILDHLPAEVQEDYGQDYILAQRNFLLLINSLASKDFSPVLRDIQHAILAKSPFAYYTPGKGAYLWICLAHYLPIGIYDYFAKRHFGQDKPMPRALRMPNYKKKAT
Method in brief: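 Single-point screen at 10 μM inhibitor, 1% DMSO: Sf-9-expressed human enzyme (105 nM), NAD 1 mM, ³H-labelled testosterone 56.25 nM, pH 8.5 phosphate/EDTA buffer, 30 min, room temperature. After TCA quench, substrate and product radioactivity quantified by UPLC with scintillation detection; inhibition percent from conversion.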

| SMILES | inhibition at 0.5 µM [1] [%] | inhibition at 10 µM [2] [%] | inhibition at 10 µM [3] [%] |
| --- | --- | --- | --- |
| N#CC(=C1CCN(C(=O)N2CCC(CO)CC2)CC1)c1cc(F)cc(F)c1 [Compound 50, 2-(3,5-difluorophenyl)-2-(1-(4-(hydroxymethyl)piperidine-1-carbonyl)piperidin-4-ylidene)acetonitrile] | 97 | 16 | 12 |
| N#CC(=C1CCN(C(=O)N2CCc3sccc3C2)CC1)c1cc(F)cc(F)c1 [Compound 51, 2-(3,5-difluorophenyl)-2-(1-(4,5,6,7-tetrahydrothieno[3,2-c]pyridine-5-carbonyl)piperidin-4-ylidene)acetonitrile] | 96 | 18 | 26 |
| N#CC(=C1CCN(C(=O)N2CCn3cncc3C2)CC1)c1cc(F)cc(F)c1 [Compound 52, 2-(3,5-difluorophenyl)-2-(1-(5,6,7,8-tetrahydroimidazo[1,5-a]pyrazine-7-carbonyl)piperidin-4-ylidene)acetonitrile] | 97 | 19 | 13 |
| N#CC(=C1CCN(C(=O)N2CCC(CO)CC2)CC1)c1ccc(OC(F)(F)F)cc1 [Compound 53, 2-(1-(4-(hydroxymethyl)piperidine-1-carbonyl)piperidin-4-ylidene)-2-(4-(trifluoromethoxy)phenyl)acetonitrile] | 97 | 7 | 15 |
| N#CC(=C1CCN(C(=O)N2CCc3[nH]ncc3C2)CC1)c1ccc(OC(F)(F)F)cc1 [Compound 54, 2-(1-(4,5,6,7-tetrahydro-1H-pyrazolo[4,3-c]pyridine-5-carbonyl)piperidin-4-ylidene)-2-(4-(trifluoromethoxy)phenyl)acetonitrile] | 99 | 15 | 20 |
| N#CC(=C1CCN(C(=O)N2CCn3cncc3C2)CC1)c1ccc(OC(F)(F)F)cc1 [Compound 55, 2-(1-(5,6,7,8-tetrahydroimidazo[1,5-a]pyrazine-7-carbonyl)piperidin-4-ylidene)-2-(4-(trifluoromethoxy)phenyl)acetonitrile] | 97 | 3 | 7 |
| N#CC(=C1CCN(C(=O)N2CCC(O)CC2)CC1)c1cccc2cn[nH]c12 [Compound 56, 2-(1-(4-hydroxypiperidine-1-carbonyl)piperidin-4-ylidene)-2-(1H-indazol-7-yl)acetonitrile] | 86 | -3 | 3 |
| N#CC(=C1CCN(C(=O)N2CCC(O)CC2)CC1)c1ccc(Cl)s1 [Compound 57, 2-(5-chlorothiophen-2-yl)-2-(1-(4-hydroxypiperidine-1-carbonyl)piperidin-4-ylidene)acetonitrile] | 96 | 13 | 3 |
| N#CC(=C1CCN(C(=O)N2CCC(O)CC2)CC1)c1cc(F)cc(F)c1 [Compound 58, 2-(3,5-difluorophenyl)-2-(1-(4-hydroxypiperidine-1-carbonyl)piperidin-4-ylidene)acetonitrile] | 93 | 6 | 21 |
| Cn1ncc2cccc(C(C#N)=C3CCN(C(=O)N4CCn5cncc5C4)CC3)c21 [Compound 59, 2-(1-methyl-1H-indazol-7-yl)-2-(1-(5,6,7,8-tetrahydroimidazo[1,5-a]pyrazine-7-carbonyl)piperidin-4-ylidene)acetonitrile] | 98 | 5 | 22 |
| N#CC(=C1CCN(C(=O)N2CCc3[nH]ncc3C2)CC1)c1cccc2[nH]ncc12 [Compound 60, 2-(1H-indazol-4-yl)-2-(1-(4,5,6,7-tetrahydro-1H-pyrazolo[4,3-c]pyridine-5-carbonyl)piperidin-4-ylidene)acetonitrile] | 98 | 9 | 29 |
| N#CC(=C1CCN(C(=O)N2CCn3cncc3C2)CC1)c1cccc2[nH]ncc12 [Compound 61, 2-(1H-indazol-4-yl)-2-(1-(5,6,7,8-tetrahydroimidazo[1,5-a]pyrazine-7-carbonyl)piperidin-4-ylidene)acetonitrile] | 99 | 7 | 30 |
| N#CC(=C1CCN(C(=O)N2CCC(O)CC2)CC1)c1ccc(Cl)cn1 [Compound 62, 2-(5-chloropyridin-2-yl)-2-(1-(4-hydroxypiperidine-1-carbonyl)piperidin-4-ylidene)acetonitrile] | 90 | -4 | 4 |
| N#CC(=C1CCN(C(=O)N2CCC(CO)CC2)CC1)c1ccc(Cl)s1 [Compound 63, 2-(5-chlorothiophen-2-yl)-2-(1-(4-(hydroxymethyl)piperidine-1-carbonyl)piperidin-4-ylidene)acetonitrile] | 99 | 29 | 22 |
| N#CC(=C1CCN(C(=O)N2CCc3sccc3C2)CC1)c1ccc(Cl)s1 [Compound 64, 2-(5-chlorothiophen-2-yl)-2-(1-(4,5,6,7-tetrahydrothieno[3,2-c]pyridine-5-carbonyl)piperidin-4-ylidene)acetonitrile] | 99 | 19 | 28 |
| N#CC(=C1CCN(C(=O)N2CCC(CO)CC2)CC1)c1ccc(Cl)cn1 [Compound 65, 2-(5-chloropyridin-2-yl)-2-(1-(4-(hydroxymethyl)piperidine-1-carbonyl)piperidin-4-ylidene)acetonitrile] | 97 | 2 | 2 |
| N#CC(=C1CCN(C(=O)N2CCc3sccc3C2)CC1)c1ccc(Cl)cn1 [Compound 66, 2-(5-chloropyridin-2-yl)-2-(1-(4,5,6,7-tetrahydrothieno[3,2-c]pyridine-5-carbonyl)piperidin-4-ylidene)acetonitrile] | 96 | 8 | 12 |
| N#CC(=C1CCN(C(=O)N2CCc3[nH]ncc3C2)CC1)c1ccc(Cl)cn1 [Compound 67, 2-(5-chloropyridin-2-yl)-2-(1-(4,5,6,7-tetrahydro-1H-pyrazolo[4,3-c]pyridine-5-carbonyl)piperidin-4-ylidene)acetonitrile] | 98 | 6 | 9 |
| N#CC(=C1CCN(C(=O)N2CCn3cncc3C2)CC1)c1ccc(Cl)cn1 [Compound 68, 2-(5-chloropyridin-2-yl)-2-(1-(5,6,7,8-tetrahydroimidazo[1,5-a]pyrazine-7-carbonyl)piperidin-4-ylidene)acetonitrile] | 98 | 11 | 8 |
| CN(C(=O)N1CCC(=C(C#N)c2ccc(Cl)cc2)CC1)C1CCOCC1 [Compound 69, 4-((4-chlorophenyl)(cyano)methylene)-N-methyl-N-(tetrahydro-2H-pyran-4-yl)piperidine-1-carboxamide] | 98 | 16 | 10 |
| N#CC(=C1CCN(C(=O)N2CCC(O)CC2)CC1)c1n[nH]c2ccccc12 [Compound 70, 2-(1-(4-hydroxypiperidine-1-carbonyl)piperidin-4-ylidene)-2-(1H-indazol-3-yl)acetonitrile] | 97 | 5 | 11 |
